One data set relates to PDE IV. Briefly: Isolated enzyme PDE IV inhibition (HL60 cells). Type of data set: biochemical. As to conditions: Ki PDE IV HL60 at (1 μM); pH 7.5, 30° C.; read-out: approximate Ki, PDE IV HL60. The protocol: The potency and selectivity of the compounds of the invention was determined using a battery of distinct PDE isoenzymes as follows:
The enzymes were purified to kinetic homogeneity using standard chromatographic techniques.
Phosphodiesterase activity was assayed as follows. The reaction was conducted in 150 μl of standard mixture containing (final concentrations): 50 mM TES-NaOH buffer (pH 7.5), 10 mM MgCl2, 0.1 μM [^3 H]-cAMP and vehicle or various concentrations of the test compounds. The reaction was initiated by addition of enzyme and conducted at 30° C. for between 5 to 30 mins. The reaction was terminated by addition of 50 μl 2% trifluoroacetic acid containing [^14 C]-5'AMP for determining recovery of the product. An aliquot of the sample was then applied to a column of neutral alumina and the [^3 H]-cAMP eluted with 10 ml 0.1 TES-NaOH buffer (pH8). The [^3 H]-5'-AMP product was eluted with 2 ml 2M NaOH into a scintillation vial containing 10 ml of scintillation cocktail. Recovery of [^3 H]-5'AMP was determined using the [^14 C]-5'AMP and all assays were conducted in the linear range of the reaction.

A further data set has as its system right atrial muscle. Conditions: selective PDE IV / PDE III reference inhibitors; background statement; cited from earlier work.
A further data set concerns papillary muscle. Conditions: selective PDE IV / PDE III reference inhibitors; background statement; cited from earlier work.
For data set [1] the following is noted: non-specific PDE inhibitor; cited from earlier work.

Each structure is given as a SMILES string.

A word on the Ki: it is the equilibrium dissociation constant of an inhibitor or competing ligand from its target. Consider `COc1ccc(NC(=O)c2ccccc2)cc1OC1CCCC1` [Example 1, N-Benzoyl-3-cyclopentyloxy-4-methyloxyaniline], for which the Ki with PDE IV is approximately 391 nM. Consider `COc1ccc(NC(=O)c2ccccc2[N+](=O)[O-])cc1OC1CCCC1` [Example 3, 3-Cyclopentyloxy-4-methyloxy-N-(2-Nitrobenzoyl)aniline], for which the inhibition constant Ki in the data set with PDE IV is approximately 179 nM. With `Cc1[nH]c(=O)c(C#N)cc1-c1ccncc1` [milrinone], in the data set on right atrial muscle, the “direct effects on atria (chronotropic), reference inhibitors” value was “positive chronotropic and inotropic effects”. In addition, in the data set on papillary muscle, the “direct effects on papillary muscle (inotropic), reference inhibitors” value was “positive chronotropic and inotropic effects”. Consider `COc1ccc(C2CNC(=O)C2)cc1OC1CCCC1` (stereo not shown) [rolipram], for which the “direct effects on atria (chronotropic), reference inhibitors” value in the data set on right atrial muscle is listed as “do not have any direct effects”. The “direct effects on papillary muscle (inotropic), reference inhibitors” value with papillary muscle is listed as “do not have any direct effects”. Regarding `Cn1c(=O)c2[nH]cnc2n(C)c1=O` [theophylline], the cardiovascular changes result in data set [1] is “significant cardiovascular changes such as tachycardia”.

Values taken from patent publication US6096747A, “Phenylaminocarbonyl derivatives and processes for their preparation” (Celltech Therapeutics Limited, priority 1992, dated 2000).
